US10857246B2, “Nuclear imaging and radiotherapeutics agents targeting carbonic anhydrase IX and uses thereof” (THE JOHNS HOPKINS UNIVERSITY, priority 2015, dated 2020)
“Also recorded” adds a separate entry of the source.

Columns and labels:
SK-RC-52 xenografts = assay: Radio-therapy of mice bearing SK-RC-52 xenografts; assay type: in vivo; settings: 11.1 MBq and 18.5 MBq i.v., n=4
[1] = tested on: CAIX-expressing SK-RC-52 tumors; assay: Biodistribution in mice bearing SK-RC-52 xenografts; assay type: in vivo; settings: 740 kBq i.v.
Procedure: Animal experiments were performed in accordance with protocols approved by the Johns Hopkins Animal Care and Use Committee (ACUC). Six-week-old female NOD/SCID mice were purchased from the Animal Resource Core of the Sidney Kimmel Comprehensive Cancer Center of Johns Hopkins and were subcutaneously injected in the lower left flank or upper right flank with 1×10^6 SK-RC-52 cells in RPMI 1640 GlutaMAX™ media (Life Technologies, Frederick, Md.) supplemented with 1% fetal bovine serum (FBS). Mice were monitored for tumor size and used for SPECT/CT imaging when the size of the tumor reached 100 mm^3.
Mice bearing SK-RC-52 xenografts at lower left flank were injected intravenously with 740 kBq (20 μCi) of [^111In]XYIMSR-01, or [^177Lu]XYIMSR-01 in 200 μL of PBS. For competitive blocking, same tumor bearing mice were injected with 740 kBq (20 μCi) of [^111In]XYIMSR-01 and 200 nmole of 8 in 200 μL of PBS. At 1 h, 4 h, 8 h, 24 h and 48 h post-injection, mice were sacrificed by cervical dislocation and the blood was immediately collected by cardiac puncture. Heart, lungs, pancreas, spleen, fat, brain, muscle, small intestines, liver, stomach, kidney, urinary bladder, and tumor were collected. Each organ was weighed and the tissue radioactivity was measured with an automated gamma counter (1282 Compugamma CS, Pharmacia/LKBNuclear, Inc., Mt. Waverly, Vic. Australia). The percentage of injected dose per gram of tissue (% ID/g) was calculated by comparison with samples of a standard dilution of the initial dose. All measurements were corrected for radioactive decay.
Data were expressed as mean±standard deviation (SD). Prism software (GraphPAD, San Diego, Calif.) was used to determine statistical significance. Statistical significance was calculated using a paired t test. P-values <0.0001 were considered significant.
Mice bearing SK-RC-52 xenografts within the lower left flank were injected intravenously with 740 kBq (20 μCi) of [Al^18F]XYIMSR-04 in 200 μL of PBS. At specific 1 hour time point mentioned in the paper, mice (n=5) were sacrificed by cervical dislocation and the blood was immediately collected by cardiac puncture. Heart, lungs, pancreas, spleen, fat, brain, muscle, small intestines, liver, bone, stomach, kidney, urinary bladder, and tumor were collected. Each organ was weighed and the tissue radioactivity was measured with an automated gamma counter (1282 Compugamma CS, Pharmacia/LKBNuclear, Inc., Mt. Waverly, Vic. Australia). The percentage of injected dose per gram of tissue (% ID/g) was calculated by comparison with samples of a standard dilution of the initial dose. All measurements were corrected for radioactive decay. Data were expressed as mean±standard deviation (SD). Prism software (GraphPAD, San Diego, Calif.) was used to determine statistical significance. Statistical significance was calculated using a paired t test. P-values <0.0001 were considered significant.
Mice bearing SK-RC-52 xenografts within the upper right flank were injected intravenously with 740 kBq (20 μCi) of [^64Cu]XYIMSR-06 in 200 μL of PBS. For in vivo competition (binding specificity) studies, tumor-bearing mice were injected with 740 kBq (20 μCi) of [^64Cu]XYIMSR-06 and 200 nmole of 8 in 200 μL of PBS concurrently. At specific times after injection (1 h, 4 h, 8 h and 24 h), mice (n=5) were sacrificed by cervical dislocation with blood immediately collected by cardiac puncture. Heart, lungs, pancreas, spleen, fat, brain, muscle, small intestines, liver, stomach, kidney, urinary bladder, and tumor were also collected. Each organ was weighed and the tissue radioactivity was measured with an automated gamma counter (1282 Compugamma CS, Pharmacia/LKBNuclear, Inc., Mt. Waverly, Vic. Australia). The percentage of injected dose per gram of tissue (% ID/g) was calculated by comparison with samples of a standard dilution of the initial dose. All measurements were corrected for radioactive decay. Data were expressed as mean±standard deviation (SD). […]

CAIX = molecular target: T1, CAIX (Homo sapiens, UniProt Q16790); assay: CAIX specific uptake in vitro; assay type: cell-based
T1 construct: host or cells: ccRCC tumours in patients

CC(CCC(=O)N[C@@H](CC(=O)N[C@@H](CC(=O)N[C@@H](CCCCn1cc(CCCC(=O)Nc2nnc(S(N)(=O)=O)s2)nn1)C(=O)NCCOCCOCCNC(=O)CN1CCN(CC(=O)[O-])CCN(CC(=O)[O-])CCN(CC(=O)[O-])CC1)C(=O)O)C(=O)O)(c1ccc(O)cc1)c1ccc(O)cc1.[177Lu+3] [[^177Lu]XYIMSR-01]
Tumor growth compared with control non-treated mice (SK-RC-52 xenografts): Delays in tumor growth; also recorded: significant therapeutic effect in controlling tumor growth | Biodistribution Bladder ([1]; 1 h post-injection): 26.55 % ID/g | Biodistribution Blood ([1]; 1 h post-injection): 0.55 % ID/g | Biodistribution Brain ([1]; 1 h post-injection): 0.49 % ID/g | Biodistribution Fat ([1]; 1 h post-injection): 1.07 % ID/g | Biodistribution Heart ([1]; 1 h post-injection): 3.59 % ID/g | Biodistribution Kidney ([1]; 1 h post-injection): 40.77 % ID/g | Biodistribution Liver ([1]; 1 h post-injection): 4.15 % ID/g | Biodistribution Lung ([1]; 1 h post-injection): 23.72 % ID/g | Biodistribution Muscle ([1]; 1 h post-injection): 1.42 % ID/g | Biodistribution Pancreas ([1]; 1 h post-injection): 2.03 % ID/g | Biodistribution Small intestine ([1]; 1 h post-injection): 6.11 % ID/g | Biodistribution Spleen ([1]; 1 h post-injection): 0.29 % ID/g | Biodistribution Stomach ([1]; 1 h post-injection): 12.20 % ID/g | Biodistribution Tumor ([1]; 1 h post-injection): 26.91 % ID/g | Tumor/Blood ratio ([1]; 1 h post-injection): 47.9 | Tumor/Kidney ratio ([1]; 1 h post-injection): 0.6 | Tumor/Muscle ratio ([1]; 1 h post-injection): 18.8 | Biodistribution Bladder ([1]; 4 h post-injection): 6.60 % ID/g | Biodistribution Blood ([1]; 4 h post-injection): 0.18 % ID/g | Biodistribution Brain ([1]; 4 h post-injection): 0.33 % ID/g | Biodistribution Fat ([1]; 4 h post-injection): 0.56 % ID/g | Biodistribution Heart ([1]; 4 h post-injection): 1.52 % ID/g | Biodistribution Kidney ([1]; 4 h post-injection): 19.17 % ID/g | Biodistribution Liver ([1]; 4 h post-injection): 1.79 % ID/g | Biodistribution Lung ([1]; 4 h post-injection): 10.35 % ID/g | Biodistribution Muscle ([1]; 4 h post-injection): 0.65 % ID/g | Biodistribution Pancreas ([1]; 4 h post-injection): 0.99 % ID/g | Biodistribution Small intestine ([1]; 4 h post-injection): 2.64 % ID/g | Biodistribution Spleen ([1]; 4 h post-injection): 0.15 % ID/g | Biodistribution Stomach ([1]; 4 h post-injection): 6.06 % ID/g | Biodistribution Tumor ([1]; 4 h post-injection): 26.28 % ID/g | Tumor/Blood ratio ([1]; 4 h post-injection): 150.3 | Tumor/Kidney ratio ([1]; 4 h post-injection): 1.4 | Tumor/Muscle ratio ([1]; 4 h post-injection): 43.7 | Biodistribution Bladder ([1]; 8 h post-injection): 6.00 % ID/g | Biodistribution Blood ([1]; 8 h post-injection): 0.16 % ID/g | Biodistribution Brain ([1]; 8 h post-injection): 0.44 % ID/g | Biodistribution Fat ([1]; 8 h post-injection): 0.46 % ID/g | Biodistribution Heart ([1]; 8 h post-injection): 1.49 % ID/g | Biodistribution Kidney ([1]; 8 h post-injection): 18.99 % ID/g | Biodistribution Liver ([1]; 8 h post-injection): 1.87 % ID/g | Biodistribution Lung ([1]; 8 h post-injection): 8.87 % ID/g | Biodistribution Muscle ([1]; 8 h post-injection): 0.47 % ID/g | Biodistribution Pancreas ([1]; 8 h post-injection): 1.03 % ID/g | Biodistribution Small intestine ([1]; 8 h post-injection): 3.67 % ID/g | Biodistribution Spleen ([1]; 8 h post-injection): 0.29 % ID/g | Biodistribution Stomach ([1]; 8 h post-injection): 6.15 % ID/g | Biodistribution Tumor ([1]; 8 h post-injection): 27.48 % ID/g | Tumor/Blood ratio ([1]; 8 h post-injection): 178.6 | Tumor/Kidney ratio ([1]; 8 h post-injection): 1.5 | Tumor/Muscle ratio ([1]; 8 h post-injection): 65.0 | Biodistribution Bladder ([1]; 24 h + block (200 nmole of 8)): 0.73 % ID/g | Biodistribution Blood ([1]; 24 h + block (200 nmole of 8)): 0.04 % ID/g | Biodistribution Brain ([1]; 24 h + block (200 nmole of 8)): 0.04 % ID/g | Biodistribution Fat ([1]; 24 h + block (200 nmole of 8)): 0.03 % ID/g | Biodistribution Heart ([1]; 24 h + block (200 nmole of 8)): 0.08 % ID/g | Biodistribution Kidney ([1]; 24 h + block (200 nmole of 8)): 1.54 % ID/g | Biodistribution Liver ([1]; 24 h + block (200 nmole of 8)): 0.46 % ID/g | Biodistribution Lung ([1]; 24 h + block (200 nmole of 8)): 0.73 % ID/g | Biodistribution Muscle ([1]; 24 h + block (200 nmole of 8)): 0.03 % ID/g | Biodistribution Pancreas ([1]; 24 h + block (200 nmole of 8)): 0.05 % ID/g | Biodistribution Small intestine ([1]; 24 h + block (200 nmole of 8)): 0.18 % ID/g | Biodistribution Spleen ([1]; 24 h + block (200 nmole of 8)): 0.38 % ID/g | Biodistribution Stomach ([1]; 24 h + block (200 nmole of 8)): 0.21 % ID/g | Biodistribution Tumor ([1]; 24 h + block (200 nmole of 8)): 1.70 % ID/g | Tumor/Blood ratio ([1]; 24 h + block (200 nmole of 8)): 42.0 | Tumor/Kidney ratio ([1]; 24 h + block (200 nmole of 8)): 1.4 | Tumor/Muscle ratio ([1]; 24 h + block (200 nmole of 8)): 58.6 | Biodistribution Bladder ([1]; 24 h post-injection): 1.29 % ID/g | Biodistribution Blood ([1]; 24 h post-injection): 0.02 % ID/g | Biodistribution Brain ([1]; 24 h post-injection): 0.28 % ID/g | Biodistribution Fat ([1]; 24 h post-injection): 0.05 % ID/g | Biodistribution Heart ([1]; 24 h post-injection): 0.28 % ID/g | Biodistribution Kidney ([1]; 24 h post-injection): 3.11 % ID/g | Biodistribution Liver ([1]; 24 h post-injection): 0.47 % ID/g | Biodistribution Lung ([1]; 24 h post-injection): 1.48 % ID/g | Biodistribution Muscle ([1]; 24 h post-injection): 0.10 % ID/g | Biodistribution Pancreas ([1]; 24 h post-injection): 0.16 % ID/g | Biodistribution Small intestine ([1]; 24 h post-injection): 0.96 % ID/g | Biodistribution Spleen ([1]; 24 h post-injection): 0.20 % ID/g | Biodistribution Stomach ([1]; 24 h post-injection): 1.02 % ID/g | Biodistribution Tumor ([1]; 24 h post-injection): 12.51 % ID/g | Biodistribution Bladder ([1]; 48 h + block (200 nmole of 8)): 0.28 % ID/g | Biodistribution Blood ([1]; 48 h + block (200 nmole of 8)): 0.04 % ID/g | Biodistribution Brain ([1]; 48 h + block (200 nmole of 8)): 0.02 % ID/g | Biodistribution Fat ([1]; 48 h + block (200 nmole of 8)): 0.02 % ID/g | Biodistribution Heart ([1]; 48 h + block (200 nmole of 8)): 0.04 % ID/g | Biodistribution Kidney ([1]; 48 h + block (200 nmole of 8)): 0.39 % ID/g | Biodistribution Liver ([1]; 48 h + block (200 nmole of 8)): 0.23 % ID/g | Biodistribution Lung ([1]; 48 h + block (200 nmole of 8)): 0.18 % ID/g | Biodistribution Muscle ([1]; 48 h + block (200 nmole of 8)): 0.01 % ID/g | Biodistribution Pancreas ([1]; 48 h + block (200 nmole of 8)): 0.02 % ID/g | Biodistribution Small intestine ([1]; 48 h + block (200 nmole of 8)): 0.05 % ID/g | Biodistribution Spleen ([1]; 48 h + block (200 nmole of 8)): 0.15 % ID/g | Biodistribution Stomach ([1]; 48 h + block (200 nmole of 8)): 0.09 % ID/g | Biodistribution Tumor ([1]; 48 h + block (200 nmole of 8)): 0.65 % ID/g | Tumor/Blood ratio ([1]; 48 h + block (200 nmole of 8)): 42.7 | Tumor/Kidney ratio ([1]; 48 h + block (200 nmole of 8)): 1.7 | Tumor/Muscle ratio ([1]; 48 h + block (200 nmole of 8)): 62.5 | Biodistribution Bladder ([1]; 48 h post-injection): 0.20 % ID/g | Biodistribution Blood ([1]; 48 h post-injection): 0.04 % ID/g | Biodistribution Brain ([1]; 48 h post-injection): 0.17 % ID/g | Biodistribution Fat ([1]; 48 h post-injection): 0.03 % ID/g | Biodistribution Heart ([1]; 48 h post-injection): 0.12 % ID/g | Biodistribution Kidney ([1]; 48 h post-injection): 0.76 % ID/g | Biodistribution Liver ([1]; 48 h post-injection): 0.19 % ID/g | Biodistribution Lung ([1]; 48 h post-injection): 0.90 % ID/g | Biodistribution Muscle ([1]; 48 h post-injection): 0.04 % ID/g | Biodistribution Pancreas ([1]; 48 h post-injection): 0.06 % ID/g | Biodistribution Small intestine ([1]; 48 h post-injection): 0.20 % ID/g | Biodistribution Spleen ([1]; 48 h post-injection): 0.13 % ID/g | Biodistribution Stomach ([1]; 48 h post-injection): 0.35 % ID/g | Biodistribution Tumor ([1]; 48 h post-injection): 5.82 % ID/g | Tumor/Blood ratio ([1]; 48 h post-injection): 200.2 | Tumor/Kidney ratio ([1]; 48 h post-injection): 7.1 | Tumor/Muscle ratio ([1]; 48 h post-injection): 141.5 | Uptake in vitro (CAIX): CAIX specific uptake
